Test: mn = molality of the nth substance listed, in mol/kg
Settings: 350 kPa, Liquid; for apparent molar heat capacity: Extra sensitive DSC

OC[C@@H](O)[C@@H](O)[C@H](O)[C@@H](O)CO [D-sorbitol] + O
Settings | apparent molar heat capacity [J/K/mol] | mass density [kg/m3]
278.15 K, m1 = 0.02 | 373 | 1001.46
278.15 K, m1 = 0.04 | 346.7 | 1002.79
278.15 K, m1 = 0.069 | 355.4 | 1005.09
278.15 K, m1 = 0.1997 | 360.1 | 1013.23
278.15 K, m1 = 0.4003 | 363.3 | 1025.52
278.15 K, m1 = 0.6991 | 367.7 | 1042.94
278.15 K, m1 = 0.9784 | 372.3 | 1057.65
278.15 K, m1 = 1.501 | 372.1 | 1082.71
278.15 K, m1 = 2.004 | 383.7 | 1104.6
283.15 K, m1 = 0.02 | 391 | 1001.14
283.15 K, m1 = 0.04 | 366.7 | 1002.47
283.15 K, m1 = 0.069 | 374.6 | 1004.71
283.15 K, m1 = 0.1997 | 378.8 | 1012.74
283.15 K, m1 = 0.4003 | 381.8 | 1024.88
283.15 K, m1 = 0.6991 | 385.6 | 1042.11
283.15 K, m1 = 0.9784 | 389.4 | 1056.73
283.15 K, m1 = 1.501 | 389.4 | 1081.57
283.15 K, m1 = 2.004 | 399.4 | 1103.19
288.15 K, m1 = 0.02 | 406 | 1000.48
288.15 K, m1 = 0.04 | 382.5 | 1001.81
288.15 K, m1 = 0.069 | 389.8 | 1003.99
288.15 K, m1 = 0.1997 | 393.7 | 1011.95
288.15 K, m1 = 0.4003 | 396.3 | 1023.96
288.15 K, m1 = 0.6991 | 399.5 | 1041
288.15 K, m1 = 0.9784 | 402.8 | 1055.55
288.15 K, m1 = 1.501 | 402 | 1080.23
288.15 K, m1 = 2.004 | 411.5 | 1101.6
293.15 K, m1 = 0.02 | 418 | –
293.15 K, m1 = 0.04 | 395.4 | –
293.15 K, m1 = 0.069 | 402.5 | –
293.15 K, m1 = 0.1997 | 406.4 | –
293.15 K, m1 = 0.4003 | 408.9 | –
293.15 K, m1 = 0.6991 | 411.6 | –
293.15 K, m1 = 0.9784 | 414.4 | –
293.15 K, m1 = 1.501 | 413.2 | –
293.15 K, m1 = 2.004 | 422 | –
298.15 K, m1 = 0.02 | 429 | 998.4
298.15 K, m1 = 0.04 | 406.9 | 999.67
298.15 K, m1 = 0.069 | 413.8 | 1001.72
298.15 K, m1 = 0.1997 | 417.4 | 1009.58
298.15 K, m1 = 0.4003 | 419.5 | 1021.39
298.15 K, m1 = 0.6991 | 421.9 | 1038.13
298.15 K, m1 = 0.9784 | 424.4 | 1052.5
298.15 K, m1 = 1.501 | 422.7 | 1076.86
298.15 K, m1 = 2.004 | 430.9 | 1097.81
303.15 K, m1 = 0.02 | 439 | –
303.15 K, m1 = 0.04 | 417.1 | –
303.15 K, m1 = 0.069 | 423.6 | –
303.15 K, m1 = 0.1997 | 426.9 | –
303.15 K, m1 = 0.4003 | 428.9 | –
303.15 K, m1 = 0.6991 | 430.9 | –
303.15 K, m1 = 0.9784 | 433.1 | –
303.15 K, m1 = 1.501 | 431.1 | –
303.15 K, m1 = 2.004 | 438.8 | –
308.15 K, m1 = 0.02 | 447 | 995.35
308.15 K, m1 = 0.04 | 425.7 | 996.6
308.15 K, m1 = 0.069 | 432 | 998.45
308.15 K, m1 = 0.1997 | 435.3 | 1006.4
308.15 K, m1 = 0.4003 | 437 | 1018.06
308.15 K, m1 = 0.6991 | 438.8 | 1034.6
308.15 K, m1 = 0.9784 | 440.7 | 1048.63
308.15 K, m1 = 1.501 | 438.4 | 1072.81
308.15 K, m1 = 2.004 | 445.8 | 1093.63
313.15 K, m1 = 0.02 | 455 | –
313.15 K, m1 = 0.04 | 432.5 | –
313.15 K, m1 = 0.069 | 439.5 | –
313.15 K, m1 = 0.1997 | 442.6 | –
313.15 K, m1 = 0.4003 | 444.2 | –
313.15 K, m1 = 0.6991 | 445.8 | –
313.15 K, m1 = 0.9784 | 447.5 | –
313.15 K, m1 = 1.501 | 445.1 | –
313.15 K, m1 = 2.004 | 452.2 | –
318.15 K, m1 = 0.02 | 462 | 991.53
318.15 K, m1 = 0.04 | 439.7 | 992.78
318.15 K, m1 = 0.069 | 446.1 | 994.56
318.15 K, m1 = 0.1997 | 449.1 | 1002.41
318.15 K, m1 = 0.4003 | 450.6 | 1013.97
318.15 K, m1 = 0.6991 | 452 | 1030.3
318.15 K, m1 = 0.9784 | 453.6 | 1044.19
318.15 K, m1 = 1.501 | 451 | 1068.13
318.15 K, m1 = 2.004 | 457.8 | 1088.73
323.15 K, m1 = 0.02 | 468 | –
323.15 K, m1 = 0.04 | 446 | –
323.15 K, m1 = 0.069 | 451.9 | –
323.15 K, m1 = 0.1997 | 455 | –
323.15 K, m1 = 0.4003 | 456.3 | –
323.15 K, m1 = 0.6991 | 457.6 | –
323.15 K, m1 = 0.9784 | 459 | –
323.15 K, m1 = 1.501 | 456.5 | –
323.15 K, m1 = 2.004 | 463 | –
328.15 K, m1 = 0.02 | 473 | 987.02
328.15 K, m1 = 0.04 | 450.8 | 988.24
328.15 K, m1 = 0.069 | 457.2 | 989.98
328.15 K, m1 = 0.1997 | 460.2 | 997.75
328.15 K, m1 = 0.4003 | 461.5 | 1009.18
328.15 K, m1 = 0.6991 | 462.7 | 1025.35
328.15 K, m1 = 0.9784 | 464 | 1039.16
328.15 K, m1 = 1.501 | 461.4 | 1062.99
328.15 K, m1 = 2.004 | 467.6 | 1083.37
333.15 K, m1 = 0.02 | 478 | –
333.15 K, m1 = 0.04 | 456.4 | –
333.15 K, m1 = 0.069 | 462 | –
333.15 K, m1 = 0.1997 | 464.9 | –
333.15 K, m1 = 0.4003 | 466.2 | –
333.15 K, m1 = 0.6991 | 467.3 | –
333.15 K, m1 = 0.9784 | 468.5 | –
333.15 K, m1 = 1.501 | 465.9 | –
333.15 K, m1 = 2.004 | 471.9 | –
338.15 K, m1 = 0.02 | 482 | 981.86
338.15 K, m1 = 0.04 | 460.5 | 983.14
338.15 K, m1 = 0.069 | 466.2 | 984.86
338.15 K, m1 = 0.1997 | 469.2 | 992.6
338.15 K, m1 = 0.4003 | 470.5 | 1003.94
338.15 K, m1 = 0.6991 | 471.5 | 1020.02
338.15 K, m1 = 0.9784 | 472.6 | 1033.71
338.15 K, m1 = 1.501 | 470.1 | 1057.29
338.15 K, m1 = 2.004 | 475.8 | 1077.49
343.15 K, m1 = 0.02 | 486 | –
343.15 K, m1 = 0.04 | 464 | –
343.15 K, m1 = 0.069 | 470 | –
343.15 K, m1 = 0.1997 | 473 | –
343.15 K, m1 = 0.4003 | 474.3 | –
343.15 K, m1 = 0.6991 | 475.3 | –
343.15 K, m1 = 0.9784 | 476.3 | –
343.15 K, m1 = 1.501 | 473.9 | –
343.15 K, m1 = 2.004 | 479.3 | –
348.15 K, m1 = 0.02 | 489 | 976.44
348.15 K, m1 = 0.04 | 467.7 | 977.62
348.15 K, m1 = 0.069 | 473.3 | 979.35
348.15 K, m1 = 0.1997 | 476.4 | 987.03
348.15 K, m1 = 0.4003 | 477.7 | 998.25
348.15 K, m1 = 0.6991 | 478.6 | 1014.26
348.15 K, m1 = 0.9784 | 479.7 | 1027.75
348.15 K, m1 = 1.501 | 477.3 | 1051.07
348.15 K, m1 = 2.004 | 482.4 | 1071.23
353.15 K, m1 = 0.02 | 492 | –
353.15 K, m1 = 0.04 | 472.1 | –
353.15 K, m1 = 0.069 | 476.2 | –
353.15 K, m1 = 0.1997 | 479.4 | –
353.15 K, m1 = 0.4003 | 480.6 | –
353.15 K, m1 = 0.6991 | 481.6 | –
353.15 K, m1 = 0.9784 | 482.6 | –
353.15 K, m1 = 1.501 | 480.4 | –
353.15 K, m1 = 2.004 | 485.2 | –
358.15 K, m1 = 0.02 | 494 | 969.9
358.15 K, m1 = 0.04 | 480.2 | 971.49
358.15 K, m1 = 0.069 | 478.7 | 972.88
358.15 K, m1 = 0.1997 | 481.7 | 980.97
358.15 K, m1 = 0.4003 | 483 | 991.75
358.15 K, m1 = 0.6991 | 483.9 | 1007.73
358.15 K, m1 = 0.9784 | 484.8 | 1021.37
358.15 K, m1 = 1.501 | 483.2 | 1044.38
358.15 K, m1 = 2.004 | 487.4 | 1064.53
363.15 K, m1 = 0.02 | 495 | –
363.15 K, m1 = 0.04 | 508 | –
363.15 K, m1 = 0.069 | 479.6 | –
363.15 K, m1 = 0.1997 | 482.5 | –
363.15 K, m1 = 0.4003 | 483.7 | –
363.15 K, m1 = 0.6991 | 484.6 | –
363.15 K, m1 = 0.9784 | 485.5 | –
363.15 K, m1 = 1.501 | 485.7 | –
363.15 K, m1 = 2.004 | 487.9 | –
368.15 K, m1 = 0.02 | – | 963.45
368.15 K, m1 = 0.04 | – | 964.68
368.15 K, m1 = 0.069 | – | 966.4
368.15 K, m1 = 0.1997 | – | 974.03
368.15 K, m1 = 0.4003 | – | 985.25
368.15 K, m1 = 0.6991 | – | 1001.2
368.15 K, m1 = 0.9784 | – | 1014.47
368.15 K, m1 = 1.501 | – | 1037.56
368.15 K, m1 = 2.004 | – | 1057.91

— the NIST ThermoML archive (doi:10.1016/j.jct.2006.08.009)
